Laboratory results as given in PubChem BioAssay AID2060893 (Molecular Pharmacology Branch, DTP, NCI, 2025).

System: K86415-001-R-J1-PDC complex spheroids, viability
Test: Anticancer human tumor K86415-001-R-J1-PDC patient-derived lung adenocarcinoma cell line growth inhibition [RAS]
Settings: for IC50: curve of first compound; for viability, T/C: stronger effect = lower value
Procedure, shortened: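 Tumour cells grown as complex spheroids with HUVEC endothelial cells and mesenchymal stem cells, treated with RAS pathway inhibitor combinations. Each agent spans half-log steps from near clinical Cmax, or 10 microM where Cmax is unknown.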
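Further: spheroids exposed to agents for seven days before readout.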

CC(=O)OC12COC1CC(O)C1(C)C(=O)C(O)C3=C(C)C(OC(=O)C(O)C(NC(=O)OC(C)(C)C)c4ccccc4)CC(O)(C(OC(=O)c4ccccc4)C21)C3(C)C (centres undefined) + CCn1c(-c2cc(N3CCN(C)CC3)cnc2C(C)OC)c2c3cc(ccc31)-c1csc(n1)CC(NC(=O)C1CC1C)C(=O)N1CCCC(N1)C(=O)OCC(C)(C)C2 showed an IC50 (second compound 0.000949 µM) of under 31.6 nM, an IC50 (second compound 0.003 µM) of under 31.6 nM and an IC50 (second compound 0.00949 µM) of under 31.6 nM. The IC50 (second compound 0.03 µM) was under 31.6 nM, the IC50 (second compound 0.0949 µM) was under 31.6 nM and the IC50 (second compound 0.3 µM) was under 31.6 nM. For the same compound, the viability, T/C (second compound 0.000949 µM, first compound 0.0316 µM) was 26.9%, the viability, T/C (second compound 0.000949 µM, first compound 0.1 µM) was 21.5% and the viability, T/C (second compound 0.000949 µM, first compound 0.316 µM) was 17.2%. The viability, T/C (second compound 0.000949 µM, first compound 1 µM) was 22.7%, the viability, T/C (second compound 0.000949 µM, first compound 3.16 µM) was 25.3% and the viability, T/C (second compound 0.000949 µM, first compound 10 µM) was 19%. The viability, T/C (second compound 0.003 µM, first compound 0.0316 µM) was 19.2%, the viability, T/C (second compound 0.003 µM, first compound 0.1 µM) was 15.6% and the viability, T/C (second compound 0.003 µM, first compound 0.316 µM) was 15.1%. For the same compound, the viability, T/C (second compound 0.003 µM, first compound 1 µM) was 16.7%, the viability, T/C (second compound 0.003 µM, first compound 3.16 µM) was 15% and the viability, T/C (second compound 0.003 µM, first compound 10 µM) was 12.8%. The viability, T/C (second compound 0.00949 µM, first compound 0.0316 µM) was 9.53%, the viability, T/C (second compound 0.00949 µM, first compound 0.1 µM) was 7.3% and the viability, T/C (second compound 0.00949 µM, first compound 0.316 µM) was 7.91%. It also gave a viability, T/C (second compound 0.00949 µM, first compound 1 µM) of 7.79%, a viability, T/C (second compound 0.00949 µM, first compound 3.16 µM) of 5.97% and a viability, T/C (second compound 0.00949 µM, first compound 10 µM) of 6.51%. For the same compound, the viability, T/C (second compound 0.03 µM, first compound 0.0316 µM) was 5.56%, the viability, T/C (second compound 0.03 µM, first compound 0.1 µM) was 5.63% and the viability, T/C (second compound 0.03 µM, first compound 0.316 µM) was 4.4%. The viability, T/C (second compound 0.03 µM, first compound 1 µM) was 3.98%, the viability, T/C (second compound 0.03 µM, first compound 3.16 µM) was 2.48% and the viability, T/C (second compound 0.03 µM, first compound 10 µM) was 2.81%. For the same compound, the viability, T/C (second compound 0.0949 µM, first compound 0.0316 µM) was 3.04%, the viability, T/C (second compound 0.0949 µM, first compound 0.1 µM) was 2.69% and the viability, T/C (second compound 0.0949 µM, first compound 0.316 µM) was 2.48%. For the same compound, the viability, T/C (second compound 0.0949 µM, first compound 1 µM) was 1.97%, the viability, T/C (second compound 0.0949 µM, first compound 3.16 µM) was 2.21% and the viability, T/C (second compound 0.0949 µM, first compound 10 µM) was 2.4%. The viability, T/C (second compound 0.3 µM, first compound 0.0316 µM) was 2.05%, the viability, T/C (second compound 0.3 µM, first compound 0.1 µM) was 2.39% and the viability, T/C (second compound 0.3 µM, first compound 0.316 µM) was 1.97%. It also gave a viability, T/C (second compound 0.3 µM, first compound 1 µM) of 2.03%, a viability, T/C (second compound 0.3 µM, first compound 3.16 µM) of 2.06% and a viability, T/C (second compound 0.3 µM, first compound 10 µM) of 1.73%.

Work on CC(C)n1nc(-c2ccc3oc(N)nc3c2)c2c(N)ncnc21 + C#Cc1c(F)ccc2cc(O)cc(-c3ncc4c(N5CC6CCC(C5)N6)nc(OCC56CCCN5CC(F)C6)nc4c3F)c12 yielded an IC50 (second compound 0.0316 µM) of 50 nM, an IC50 (second compound 0.1 µM) of 48.8 nM and an IC50 (second compound 0.316 µM) of 57.1 nM. It also gave an IC50 (second compound 1 µM) of 59 nM, an IC50 (second compound 3.16 µM) of under 0.316 nM and an IC50 (second compound 10 µM) of under 0.316 nM. For the same compound, the viability, T/C (second compound 0.0316 µM, first compound 0.000316 µM) was 96.9%, the viability, T/C (second compound 0.0316 µM, first compound 0.001 µM) was 105% and the viability, T/C (second compound 0.0316 µM, first compound 0.00316 µM) was 105%. The viability, T/C (second compound 0.0316 µM, first compound 0.01 µM) was 89.2%, the viability, T/C (second compound 0.0316 µM, first compound 0.0316 µM) was 63.5% and the viability, T/C (second compound 0.0316 µM, first compound 0.1 µM) was 30.3%. The viability, T/C (second compound 0.1 µM, first compound 0.000316 µM) was 99.6%, the viability, T/C (second compound 0.1 µM, first compound 0.001 µM) was 120% and the viability, T/C (second compound 0.1 µM, first compound 0.00316 µM) was 102%. It also gave a viability, T/C (second compound 0.1 µM, first compound 0.01 µM) of 96.5%, a viability, T/C (second compound 0.1 µM, first compound 0.0316 µM) of 62.4% and a viability, T/C (second compound 0.1 µM, first compound 0.1 µM) of 29.3%. For the same compound, the viability, T/C (second compound 0.316 µM, first compound 0.000316 µM) was 95.2%, the viability, T/C (second compound 0.316 µM, first compound 0.001 µM) was 94.7% and the viability, T/C (second compound 0.316 µM, first compound 0.00316 µM) was 92.3%. It also gave a viability, T/C (second compound 0.316 µM, first compound 0.01 µM) of 96.5%, a viability, T/C (second compound 0.316 µM, first compound 0.0316 µM) of 67.5% and a viability, T/C (second compound 0.316 µM, first compound 0.1 µM) of 33.4%. For the same compound, the viability, T/C (second compound 1 µM, first compound 0.000316 µM) was 68.8%, the viability, T/C (second compound 1 µM, first compound 0.001 µM) was 70.6% and the viability, T/C (second compound 1 µM, first compound 0.00316 µM) was 68.1%. For the same compound, the viability, T/C (second compound 1 µM, first compound 0.01 µM) was 83%, the viability, T/C (second compound 1 µM, first compound 0.0316 µM) was 70% and the viability, T/C (second compound 1 µM, first compound 0.1 µM) was 32.4%. The viability, T/C (second compound 3.16 µM, first compound 0.000316 µM) was 35.4%, the viability, T/C (second compound 3.16 µM, first compound 0.001 µM) was 40.3% and the viability, T/C (second compound 3.16 µM, first compound 0.00316 µM) was 38.2%. For the same compound, the viability, T/C (second compound 3.16 µM, first compound 0.01 µM) was 44.5%, the viability, T/C (second compound 3.16 µM, first compound 0.0316 µM) was 52.3% and the viability, T/C (second compound 3.16 µM, first compound 0.1 µM) was 28.5%. It also gave a viability, T/C (second compound 10 µM, first compound 0.000316 µM) of 15.9%, a viability, T/C (second compound 10 µM, first compound 0.001 µM) of 17.6% and a viability, T/C (second compound 10 µM, first compound 0.00316 µM) of 15.1%. The viability, T/C (second compound 10 µM, first compound 0.01 µM) was 19.3%, the viability, T/C (second compound 10 µM, first compound 0.0316 µM) was 19.5% and the viability, T/C (second compound 10 µM, first compound 0.1 µM) was 8.39%.
